Measured values reported in patent publication US20240025912A1 (Merck Sharp & Dohme LLC, priority 2022, published 2024).

The molecules below were run against GST-RIPK1 (recombinant GST-RIPK1 kinase domain (residues 1-327)) (Homo sapiens (Human), UniProt Q13546) (assay: RIPK1-ADP-Glo Enzymatic Assay). Settings: 25 nM GST-RIPK1, 300 μM ATP, 3 μM dephosphorylated-MBP, 30 min pre-incubation, 150 min reaction.
Assay type: biochemical
Protocol: The enzymatic activity of RIPK1 is measured using an assay derived from ADP-Glo kit (TMPromega), which provides a luminescent-based ADP detection system. Specifically, the ADP generated by RIPK1 kinase is proportionally detected as luminescent signals in a homogenous fashion. In this context, the assessment of the inhibitory effect of small molecules (EC50) is measured by the effectiveness of the compounds to inhibit the ATP to ADP conversion by RIPK1.
In this assay, the potency (EC50) of each compound was determined from a ten-point (1:3 serial dilution; top compound concentration of 100000 nM) titration curve using the following outlined procedure. To each well of a white ProxiPlus 384 well-plate, 30 nL of compound (1% DMSO in final assay volume of 3 μL) was dispensed, followed by the addition of 2 μL of 1× assay buffer (25 mM Hepes 7.3, 20 mM MgCl2, 50 mM NaCl, 1 mM DTT, 0.005% Tween20, and 0.02% BSA) containing 37.5 nM of GST-RIPK1 (recombinant GST-RIPK1 kinase domain (residues 1-327) enzyme produced from baculovirus-transfected Sf21 cells: MW 62 kDa). Plates were placed in an ambient temperature humidified chamber for a 30 min pre-incubation with compound. Subsequently, each reaction was initiated by the addition of 1 μL 1× assay buffer containing 900 μM ATP and 3 μM dephosphorylated-MBP substrate. The final reaction in each well of 3 μL consists of 25 nM of GST-RIPK1, 300 μM ATP, and 3 μM dephosphorylated-MBP. Kinase reactions were allowed to proceed for 150 min prior to adding ADP-Glo reagents per Promega's outlined kit protocol. Dose-response curves were generated by plotting percent effect (% product conversion; Y-axis) vs. Log 10 compound concentrations (X-axis). EC50 values were calculated using a non-linear regression, four-parameters sigmoidal dose-response model.

Chain of GST-RIPK1 (recombinant GST-RIPK1 kinase domain (residues 1-327)) (Q13546 1-327): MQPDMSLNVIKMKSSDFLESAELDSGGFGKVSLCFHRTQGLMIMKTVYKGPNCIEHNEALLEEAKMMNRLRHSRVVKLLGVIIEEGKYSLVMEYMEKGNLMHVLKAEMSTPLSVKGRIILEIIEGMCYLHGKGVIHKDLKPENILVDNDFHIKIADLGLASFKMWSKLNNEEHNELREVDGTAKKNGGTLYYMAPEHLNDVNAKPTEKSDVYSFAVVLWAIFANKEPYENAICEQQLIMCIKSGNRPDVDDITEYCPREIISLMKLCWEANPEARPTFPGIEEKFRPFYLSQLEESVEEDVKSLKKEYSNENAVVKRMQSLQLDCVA

Compound | EC50 [nM]
N#CC12CC(n3nc4n(c3=O)C(c3cnccn3)CC4)(C1)C2 (racemic) [Compound 4-1, (±)-3-(3-oxo-5-(pyrazin-2-yl)-6,7-dihydro-3H-pyrrolo[2,1-c][1,2,4]triazol-2(5H)-yl)bicyclo[1.1.1]pentane-1-carbonitrile] | 385
COc1cc(F)cc(C2CCc3nn(C45CC(F)(C4)C5)c(=O)n32)c1 (racemic) [Compound 4-2, (±)-5-(3-fluoro-5-methoxyphenyl)-2-(3-fluorobicyclo[1.1.1]pentan-1-yl)-2,5,6,7-tetrahydro-3H-pyrrolo[2,1-c][1,2,4]triazol-3-one] | 259
N#CC12CC(n3nc4n(c3=O)C(C3CCCCC3)CC4)(C1)C2 (single isomer, unassigned) [Compound 1-55, 3-(5-(S or R)-cyclohexyl-3-oxo-6,7-dihydro-3H-pyrrolo[2,1-c][1,2,4]triazol-2(5H)-yl)bicyclo[1.1.1]pentane-1-carbonitrile] | 103
O=c1n(C23CC(F)(C2)C3)nc2n1[C@H](c1cc(F)cc(F)c1)CC2F (single isomer, unassigned) [Compound 6-2, (5S)-5-(3,5-difluorophenyl)-7-(S or R)-fluoro-2-(3-fluorobicyclo[1.1.1]pentan-1-yl)-2,5,6,7-tetrahydro-3H-pyrrolo[2,1-c][1,2,4]triazol-3-one] | 18.4
O=c1n(C23CC(F)(C2)C3)nc2n1[C@H](c1ccccc1)CC2F (single isomer, unassigned) [Compound 6-3, (5S)-7-(S or R)-fluoro-2-(3-fluorobicyclo[1.1.1]pentan-1-yl)-5-phenyl-2,5,6,7-tetrahydro-3H-pyrrolo[2,1-c][1,2,4]triazol-3-one] | 157

Further molecules by falling EC50, results first:

EC50 [nM] | Compound
601 | CC1Cc2nn(C34CC(C#N)(C3)C4)c(=O)n2C1c1cc(F)cc(F)c1 (single isomer, unassigned) [Compound 1-52, 3-[5-(S or R)-(3,5-difluorophenyl)-6-(S or R)-methyl-3-oxo-6,7-dihydro-3H-pyrrolo[2,1-c][1,2,4]triazol-2(5H)-yl]bicyclo[1.1.1]pentane-1-carbonitrile]
495 | C#Cc1cccc(C2CCc3nn(C45CC(F)(C4)C5)c(=O)n32)c1 (racemic) [Compound 4-4, (±)-5-(3-ethynylphenyl)-2-(3-fluorobicyclo[1.1.1]pentan-1-yl)-2,5,6,7-tetrahydro-3H-pyrrolo[2,1-c][1,2,4]triazol-3-one]
426 | N#Cc1cccc(C2CCc3nn(C45CC(F)(C4)C5)c(=O)n32)c1 (racemic) [Compound 4-3, (±)-3-[2-(3-fluorobicyclo[1.1.1]pentan-1-yl)-3-oxo-2,5,6,7-tetrahydro-3H-pyrrolo[2,1-c][1,2,4]triazol-5-yl]benzonitrile]
340 | N#CC12CC(n3nc4n(c3=O)C(C3CCCC3)CC4)(C1)C2 (single isomer, unassigned) [Compound 1-54, 3-(5-(S or R)-cyclopentyl-3-oxo-6,7-dihydro-3H-pyrrolo[2,1-c][1,2,4]triazol-2(5H)-yl)bicyclo[1.1.1]pentane-1-carbonitrile]
116 | O=c1n(C23CC(F)(C2)C3)nc2n1[C@H](c1cc(F)cc(F)c1)CC2F (single isomer, unassigned) [Compound 6-1, (5S)-5-(3,5-difluorophenyl)-7-(S or R)-fluoro-2-(3-fluorobicyclo[1.1.1]pentan-1-yl)-2,5,6,7-tetrahydro-3H-pyrrolo[2,1-c][1,2,4]triazol-3-one]
53.8 | O=c1n(C23CC(F)(C2)C3)nc2n1C(c1cccc(F)c1F)CC2 (racemic) [Compound 4-5, (±)-5-(2,3-difluorophenyl)-2-(3-fluorobicyclo[1.1.1]pentan-1-yl)-2,5,6,7-tetrahydro-3H-pyrrolo[2,1-c][1,2,4]triazol-3-one]
44.1 | Cc1cc(F)cc(C2CCc3nn(C45CC(F)(C4)C5)c(=O)n32)c1 (racemic) [Compound 4-6, (±)-2-(3-fluorobicyclo[1.1.1]pentan-1-yl)-5-(3-fluoro-5-methylphenyl)-2,5,6,7-tetrahydro-3H-pyrrolo[2,1-c][1,2,4]triazol-3-one]
